# In US20250275991A1, “ORAL COMPLEMENT FACTOR D INHIBITORS” (BioCryst Pharmaceuticals, Inc, priority 2019, published 2025):
# Biological target: Factor D (Homo sapiens, UniProt P00746)
# Assay: Factor D esterolytic assay
# Assay type: biochemical
# Conditions: substrate Z-Lys-SBzl 1.29 mM, 100 mM HEPES, 500 mM NaCl, pH 7.5, 10% DMSO, tested a minimum of three times
# Procedure: The IC50 value of a compound (i.e., the concentration of the compound that inhibits 50% of the enzymatic activity) was calculated according to the procedure reported in U.S. Pat. No. 6,653,340 B1, e.g., column 74 (incorporated by reference).
# Specifically, the compounds were dissolved in a stock solution of DMSO at 10.0 or 100 mM. A portion of this stock solution was added to assay buffer in a final volume of 50 μL. Controls included buffer alone and enzyme solutions to which DMSO was added. Substrate was added to the reaction wells immediately or after incubation at room temperature. The reaction rates were measured spectrophotometrically by the generation of product at 405 nm for 600 sec. Background absorbance at 690 nm was measured and subtracted from the absorbance at 405 nm for each well.
# The reaction rate for enzyme alone was compared to the rate of enzyme in the presence of inhibitor and the percent inhibition was calculated as shown below: […]
# An established esterolytic assay for the measurement of Factor D activity and inhibition of Factor D activity was used (Kam, C. M.; McRae, B. J.; Harper, J. W.; Niemann, M. A.; Volanakis, J. E.; Powers, J. C. Human complement proteins D, C2, and B Active site mapping with peptide thioester substrates. J Biol. Chem. 1987, 262, 3444-3451). For this assay Z-Lys-SBzl, 1.29 mM (Kim, S.; Narayana, S. V. L; Volanakis, J. E. Mutational analysis of the substrate binding site of human complement Factor D. Biochemistry. 1994, 33, 14393-14399.) was used as the substrate for Factor D ([…]). Hydrolysis of this compound by Factor D liberated a free sulfhydryl group which is then reacted with 5,5′-dithiobis(2nitrobenzoic acid) producing an intense yellow color (Habeeb, A. F. S. A. Reaction of protein sulfhydryl groups with Ellman's Reagent. Methods in Enzymol. 1976, 25, 457-464). The assays were performed in 96 well microtiter plates and rates of hydrolysis were monitored at 405 nm on a Biotek Synergy H1 plate reader. Hydrolysis rates were reported as change in mOD/min. The assay was conducted in 100 mM HEPES, 500 mM NaCl, pH 7.5 containing 10% DMSO in a final volume of 50 μL per well.
# An IC50, a compound concentration which inhibits 50% of the enzymatic activity, was calculated. Compounds in the examples were tested a minimum of three times.
# Factor D, sequence (P00746 26-253): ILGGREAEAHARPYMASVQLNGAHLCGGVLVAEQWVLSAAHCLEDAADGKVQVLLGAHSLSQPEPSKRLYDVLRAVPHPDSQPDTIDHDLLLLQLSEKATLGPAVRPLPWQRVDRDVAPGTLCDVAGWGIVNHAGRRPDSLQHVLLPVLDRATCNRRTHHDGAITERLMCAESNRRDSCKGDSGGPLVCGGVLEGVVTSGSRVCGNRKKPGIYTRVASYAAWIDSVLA
row,IC50,SMILES
1,< 1000 nM,"NCc1nc(-c2cc(COc3ccccc3CC(=O)O)cc3ccoc23)cs1 [Compound 5e, 2-(2-((7-(2-(aminomethyl)thiazol-4-yl)benzofuran-5-yl)methoxy)phenyl)acetic acid]"
2,< 1000 nM,"CCCCCCC(=O)NCc1ccc(CC(=O)O)c(OCc2cc(-c3cccc(CN)c3)c3occc3c2)c1 [Compound 26f, 2-(2-((7-(3-(aminomethyl)phenyl)benzofuran-5-yl)methoxy)-4-(heptanamidomethyl)phenyl)acetic acid]"
3,< 1000 nM,"CCOC(=O)NC(C)c1ccc(CC(=O)O)c(OCc2cc(-c3cccc(CN)c3)c3occc3c2)c1 (single isomer, unassigned; (-)) [Compound 55e, (−)-2-(2-((7-(3-(aminomethyl)phenyl)benzofuran-5-yl)methoxy)-4-(1-((ethoxycarbonyl)amino)ethyl)phenyl)acetic acid]"
4,< 1000 nM,"NCc1nccc(-c2cc(COc3ccccc3CC(=O)O)cc3c(F)coc23)c1F [Compound 46d, 2-(2-((7-(2-(aminomethyl)-3-fluoropyridin-4-yl)-3-fluorobenzofuran-5-yl)methoxy)phenyl)acetic acid]"
5,< 1000 nM,"NCc1cc(-c2cc(COc3ccc(F)cc3CC(=O)O)cc3cc(F)oc23)ccn1 [Compound 73c, 2-(2-((7-(2-(aminomethyl)pyridin-4-yl)-2-fluorobenzofuran-5-yl)methoxy)-5-fluorophenyl)acetic acid]"
6,< 1000 nM,"NCc1cccc(-c2cc(COc3ccc(F)cc3CC(=O)O)cc3cc(F)oc23)c1F [Compound 18c, 2-(2-((7-(3-(aminomethyl)-2-fluorophenyl)-2-fluorobenzofuran-5-yl)methoxy)-5-fluorophenyl)acetic acid]"
7,< 1000 nM,"NCc1cccc(-c2cc(COc3ccccc3CC(=O)O)cc3c(F)coc23)c1 [Compound 44d, 2-(2-((7-(3-(aminomethyl)phenyl)-3-fluorobenzofuran-5-yl)methoxy)phenyl)acetic acid]"
8,< 1000 nM,"NCc1cccc(-c2cc(COc3ccccc3CC(=O)O)c(C3CC3)c3ccoc23)c1 [Compound 68g, 2-(2-((7-(3-(aminomethyl)phenyl)-4-cyclopropylbenzofuran-5-yl)methoxy)phenyl)acetic acid]"
9,< 1000 nM,"NCc1cccc(-c2cc(C(=O)Nc3ccccc3CC(=O)O)cc3c2ccn3-c2ccccc2)c1 [Compound 71e, 2-(2-(4-(3-(aminomethyl)phenyl)-1-phenyl-1H-indole-6-carboxamido)phenyl)acetic acid]"
10,< 1000 nM,"COc1ccc(CC(=O)O)c(OCc2cc(-c3cccc(CN)c3F)c3occc3c2F)c1 [Compound 42e, 2-(2-((7-(3-(aminomethyl)-2-fluorophenyl)-4-fluorobenzofuran-5-yl)methoxy)-4-methoxyphenyl)acetic acid]"
11,1000 to 10000 nM,"NCc1cc(-c2cc(COc3ccccc3CC(=O)O)cc3ccoc23)c[nH]1 [Compound 8g, 2-(2-((7-(5-(aminomethyl)-1H-pyrrol-3-yl)benzofuran-5-yl)methoxy)phenyl)acetic acid]"
12,< 1000 nM,"NCc1cccc(-c2cc(C(Oc3ccccc3CC(=O)O)C(=O)O)cc3ccoc23)c1 (stereo not drawn) [Compound 35e, 2-(7-(3-(aminomethyl)phenyl)benzofuran-5-yl)-2-(2-(carboxymethyl)phenoxy)acetic acid]"
13,1000 to 10000 nM,"NCc1ccn(-c2cc(COc3ccccc3CC(=O)O)cc3ccoc23)c1 [Compound 63f, 2-(2-((7-(3-(aminomethyl)-1H-pyrrol-1-yl)benzofuran-5-yl)methoxy)phenyl)acetic acid]"
14,< 1000 nM,"CC(C)C(N)C(=O)OCc1cc2cc(COc3ccccc3CC(=O)O)cc(-c3cccc(CN)c3)c2o1 (stereo not drawn) [Compound 24b, 2-(2-((2-(((2-amino-3-methylbutanoyl)oxy)methyl)-7-(3-(aminomethyl)phenyl)benzofuran-5-yl)methoxy)phenyl)acetic acid]"

row,SMILES,IC50
1,"CC(=O)OCc1cc2cc(COc3ccccc3CC(=O)O)cc(-c3cccc(CN)c3)c2o1 [Compound 23h, 2-(2-((2-(acetoxymethyl)-7-(3-(aminomethyl)phenyl)benzofuran-5-yl)methoxy)phenyl)acetic acid]",< 1000 nM
